In PMC5058653, “A Fhit-mimetic peptide suppresses annexin A4-mediated chemoresistance to paclitaxel in lung cancer cells” (Oncotarget, 2016):
No end group written: not given here.

How the values were obtained:
A549 cells = assay: A549 tumor xenograft in nude mice, tumor weight; format: in vivo, mouse; settings: s.c. A549 xenograft, paclitaxel alone 40 mg/kg single i.v. dose, 48 h, n = 5 mice per group
Method: We further investigated the in vivo effects of Tat-Fhit 7-13 peptide with or without paclitaxel treatment in a preclinical model of lung cancer, using six groups of mice (n = 5 mice per group). Each group was subcutaneously injected with 1×10^7 A549 cells. When tumors reached the diameter of 15 mm, three groups were treated either with a single administration of 40 mg/kg paclitaxel, or 50 mg/kg Tat-Fhit 7-13 peptide, or both; mice were monitored on a regular basis. The remaining three groups, used as controls, were either left untreated or treated with Tat-Fhit 7-13 scrambled or treated with Tat-Fhit 7-13 scrambled plus paclitaxel; 48 h after treatments, mice were sacrificed and tumors were evaluated by weight.
Figure 3 Tat-Fhit 7-13 peptide in combination with paclitaxel blocks in vivo tumor formation A., C. Nude mice were subcutaneously injected with […] A549 cells. When tumors reached 15 mm diameter, mice were mock-treated, treated paclitaxel (single IV administration of 40 mg/kg), with scrambled Tat peptide (50 mg/kg) alone or in combination with paclitaxel, with Tat-Fhit 7-13 peptide (50 mg/Kg) alone or in combination with paclitaxel; paclitaxel and peptides were injected in a single administration and mice were monitored on a regular basis. Two days later, mice were sacrificed and tumors were evaluated by percent A. and by weight C.. […]

[1] = culture medium over adherent cells, 24 h after administration, read-out MALDI mass spectrometry
From the text: We tested the stability of our peptides in the culture medium over adherent cells through Mass Spectroemtry-MALDI.

Annexin A4 = target: T1, Annexin A4 (Homo sapiens, UniProt P09525); assay: GST pull-down from A549 total lysates, immunoblot for Annexin 4; format: binding; settings: GSH resin beads, 12 h at 4°C
T1 construct: endogenous in cells; host or cells: A549 total lysates
T1 sequence (P09525 1-319): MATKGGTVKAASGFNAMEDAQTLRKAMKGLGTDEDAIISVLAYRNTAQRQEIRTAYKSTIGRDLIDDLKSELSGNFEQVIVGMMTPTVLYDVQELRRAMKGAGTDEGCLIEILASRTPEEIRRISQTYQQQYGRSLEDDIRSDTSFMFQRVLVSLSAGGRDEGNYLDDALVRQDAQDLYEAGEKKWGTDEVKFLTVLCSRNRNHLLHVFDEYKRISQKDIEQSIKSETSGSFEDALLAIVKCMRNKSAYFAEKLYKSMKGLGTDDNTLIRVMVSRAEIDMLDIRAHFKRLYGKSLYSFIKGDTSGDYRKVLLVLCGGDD
From the text: In order to map the region of Fhit protein binding Annexin A4, we cloned downstream GST three truncated FHIT cDNAs, namely TR1 (332 bp), TR2 (212 bp) and TR3 (113 bp), all containing the N-terminus common to the wild-type Fhit protein. TR1, TR2, and TR3 correspond to the 111, 71, and 38 N-terminal aminoacids of Fhit protein, respectively (Figure 1A). Annexin A4 binds wild-type Fhit/GST fusion protein as well as all shorter forms of Fhit fusion proteins, indicating its binding to the N-terminus of Fhit (Figure 1B). In our previous paper, we reported that Fhit/Annexin A4 interaction was only detectable in the presence of DSP [19]. DSP is a cross-linker containing an amine-reactive N-hydroxysuccinimide (NHS); NHS esters react with primary amine group located at lysine (Lys, K) residue sidechain. Since Lys residues are abundant and easily accessible on the hydrophilic surface of most proteins they usually crosslink with high efficiency.
Figure 1 Fhit peptide interacts with Annexin 4 A. GST-Fhit fusion protein and three deletion mutant proteins. Fhit was deleted from the C-terminal site. B. GST-FHIT plasmids were amplified in BL21 bacteria by stimulation with IPTG […] for 6 h at 30°C. Recombinant GST-Fhit fusion proteins were purified with GSH resin beads and added to A549 total lysates. 12 h after incubation at 4°C, GSH resin beads were washed and proteins eluted. […]

Compound | stability in the culture medium [1] | further results
CC(=O)O[C@H]1C(=O)[C@@]2(C)[C@H]([C@H](OC(=O)c3ccccc3)[C@]3(O)C[C@H](OC(=O)[C@H](O)[C@@H](NC(=O)c4ccccc4)c4ccccc4)C(C)=C1C3(C)C)[C@]1(OC(C)=O)CO[C@@H]1C[C@@H]2O [paclitaxel] | – | tumor wt, % of controls (A549 cells): 60%
YGRKKRRQRRRGLSKQPHI [Tat-Fhit 7-13 scrambled peptide] | still stable and undegraded | –
YGRKKRRQRRRGQHLIKPS [Tat-Fhit 7-13 peptide] | still stable and undegraded | –
wild-type Fhit/GST fusion protein: recombinant full-length Fhit fused to GST, expressed in E. coli BL21 | – | binding of Annexin A4 (GST pull-down) (Annexin A4): binds
